Test results reported in ChEMBL document CHEMBL1134880, “Quantum chemical- and 3-D-QSAR (CoMFA) studies of benzalacetones and 1,1,1-trifluoro-4-phenyl-3-buten-2-ones” (Bioorg Med Chem Lett, 2002).

System: Escherichia coli
Test: Inhibition of UV-induced mutagenesis in Escherichia coli WP2uvrA
Assay type: functional, organism-based

Row | SMILES | IC50 [µM]
1 | CCOc1cccc(/C=C/C(C)=O)c1O | 1200
2 | N#Cc1ccc(/C=C/C(=O)C(F)(F)F)cc1 | 25.1
3 | COc1ccc(/C=C/C(=O)C(F)(F)F)cc1 | 74.1
4 | O=C(/C=C/c1cccc(Cl)c1)C(F)(F)F | 24
5 | CC(=O)/C=C/c1cccc(C#N)c1 | 282
6 | CC(=O)/C=C/c1ccccc1F | 339
7 | CC(=O)/C=C/c1cccc(C)c1 | 1510
8 | CC(=O)/C=C/c1cccc([N+](=O)[O-])c1 | 151
9 | CC(=O)/C=C/c1ccccc1O | 229
10 | CC(=O)/C=C/c1ccccc1Cl | 525
11 | CC(=O)/C=C/c1ccc(C)cc1 | 1580
12 | COc1ccc(/C=C/C(C)=O)cc1 | 1580
13 | COc1cccc(/C=C/C(C)=O)c1 | 708
14 | CC(=O)/C=C/c1ccc(F)cc1 | 631
15 | CC(=O)/C=C/c1ccccc1Br | 398
16 | CC(=O)/C=C/c1ccc([N+](=O)[O-])cc1 | 83.2
17 | CC(=O)/C=C/c1cc(C)c(O)c(C)c1 | 1100
18 | CC(=O)/C=C/c1cccc(C(F)(F)F)c1 | 219

Row | SMILES | IC50 [µM]
19 | COc1cccc(/C=C/C(C)=O)c1O | 676
20 | CC(=O)/C=C/c1ccc(Br)cc1 | 525
21 | CC(=O)/C=C/c1cccc(Br)c1 | 407
22 | CC(=O)/C=C/c1cccc(F)c1 | 257
23 | O=C(/C=C/c1ccc(Cl)cc1)C(F)(F)F | 15.8
24 | CCc1ccc(/C=C/C(C)=O)cc1 | 1200
25 | CC(=O)/C=C/c1cccc(Cl)c1 | 427
26 | O=C(/C=C/c1cccc([N+](=O)[O-])c1)C(F)(F)F | 17
27 | CC(=O)/C=C/c1ccc(C(F)(F)F)cc1 | 110
28 | CC(=O)/C=C/c1cccc(C)c1O | 240
29 | O=C(/C=C/c1ccccc1Cl)C(F)(F)F | 28.2
30 | CC(=O)/C=C/c1ccc(O)c(O)c1 | 977
31 | O=C(/C=C/c1ccccc1)C(F)(F)F | 30.2
32 | N#Cc1cccc(/C=C/C(=O)C(F)(F)F)c1 | 17
33 | CC(=O)/C=C/c1ccc(Cl)cc1 | 324
34 | CC(=O)/C=C/c1ccc(C#N)cc1 | 170
35 | CC(=O)/C=C/c1ccc(O)cc1 | 1200
